Reference: US8673951B2, “Isoxazoline-substituted benzamide compound and pesticide” (priority 2005, dated 2014)

What was measured:
[1] = system: cabbage moth (Plutella xylostella); assay: Insecticidal test against cabbage moth (Test Example 1); assay type: in vivo; details: foliar, 144 h, read-out: insecticidal rate (rate of dead insects)
[2] = system: common cutworm (Spodoptera litura); assay: Insecticidal test against common cutworm (Test Example 2); assay type: in vivo; details: in Brassica oleracea, foliar, 144 h, read-out: insecticidal rate (rate of dead insects)
Protocol: A 10% emulsifiable concentrate (depending on the compounds, 10% wettable powder was applied for the test) of the compound of the present invention was diluted with water […] To the chemical solution was dipped leaves of cabbage for about 10 seconds, and after air-drying, they were placed in a laboratory dish, then 5-common cutworm (Spodoptera litura) in the stage of second instar larva per the dish were released therein, and the dish was covered with a lid and contained at a thermostat chamber at 25° C. […] Incidentally, the test was carried out with two districts.

Row | SMILES | pest or weed control at 500 ppm [1] | pest or weed control at 10 ppm [2] | pest or weed control at 10 ppm [1] | pest or weed control at 100 ppm [2] | pest or weed control at 100 ppm [1]
1 | COC(=O)NC(=O)c1c(C)cc(C2=NOC(c3cc(Cl)cc(Cl)c3)(C(F)(F)F)C2)cc1I (stereo not drawn) [2-019, Methyl N-[4-[5-(3,5-dichlorophenyl)-5-trifluoromethyl-4,5-dihydroisoxazole-3-yl]-6-iodo-2-methylbenzoyl]carbamate] | ≥ 80% | – | – | – | –
2 | COC(=O)NC(=O)c1ccc(C2=NOC(c3cc(Cl)c(Cl)c(Cl)c3)(C(F)(F)F)C2)cc1C (stereo not drawn) [2-026, Methyl N-[2-methyl-4-[5-(3,4,5-trichlorophenyl)-5-trifluoromethyl-4,5-dihydroisoxazole-3-yl]benzoyl]carbamate] | – | ≥ 80% | ≥ 80% | – | –
3 | COC(=O)N(COCC(F)(F)F)C(=O)c1ccc(C2=NOC(c3cc(Cl)cc(Cl)c3)(C(F)(F)F)C2)cc1C (stereo not drawn) [3-032, Methyl N-[4-[5-(3,5-dichlorophenyl)-5-trifluoromethyl-4,5-dihydro-isoxazole-3-yl]-2-methylbenzoyl]-N-(2,2,2-trifluoroethoxymethyl)carbamate] | – | ≥ 80% | ≥ 80% | – | –
4 | COC(=O)N(C(=O)c1ccc(C2=NOC(c3cc(Cl)cc(Cl)c3)(C(F)(F)F)C2)cc1C)C1CCCO1 (stereo not drawn) [3-077, Methyl N-[4-[5-(3,5-dichlorophenyl)-5-trifluoromethyl-4,5-dihydro-isoxazole-3-yl]-2-methylbenzoyl]-N-(2-tetrahydrofuranyl)carbamate] | – | ≥ 80% | ≥ 80% | – | –
5 | Cc1cc(C2=NOC(c3cc(Cl)cc(Cl)c3)(C(F)(F)F)C2)ccc1C(=O)NC(N)=O (stereo not drawn) [4-002, N-Carbamoyl-4-[5-(3,5-dichlorophenyl)-5-trifluoromethyl-4,5-dihydro-isoxazole-3-yl]-2-methyl benzoic acid amide] | – | – | – | ≥ 80% | ≥ 80%
6 | Cc1cc(C2=NOC(c3cc(Cl)cc(Cl)c3)(C(F)(F)F)C2)ccc1C(=O)N(C)C(N)=O (stereo not drawn) [4-003, N-Carbamoyl-4-[5-(3,5-dichlorophenyl)-5-trifluoromethyl-4,5-dihydroisoxazole-3-yl]-2-methyl-N-methyl benzoic acid amide] | – | – | – | ≥ 80% | ≥ 80%
7 | Cc1cc(C2=NOC(c3cc(Cl)cc(Cl)c3)(C(F)(F)F)C2)ccc1C(=O)N(C)C(=O)NC(=O)CCl (stereo not drawn) [4-006, N-Chloroacetyl-N′-[4-[5-(3,5-dichlorophenyl)-5-trifluoromethyl-4,5-dihydroisoxazole-3-yl]-2-methylbenzoyl]-N′-methyl urea] | – | – | – | ≥ 80% | ≥ 80%
8 | CCN(C(=O)NC(=O)c1ccc(C2=NOC(c3cc(Cl)cc(Cl)c3)(C(F)(F)F)C2)cc1C)C(=O)OC (stereo not drawn) [4-011, N-[4-[5-(3,5-dichlorophenyl)-5-trifluoromethyl-4,5-dihydro-isoxazole-3-yl]-2-methylbenzoyl]-N′-ethyl-N′-methoxycarbonyl urea] | – | ≥ 80% | ≥ 80% | – | –
9 | COC(=O)N(C(=O)c1ccc(C2=NOC(c3cc(Cl)cc(Cl)c3)(C(F)(F)F)C2)cc1C)c1ncccn1 (stereo not drawn) [5-014, Methyl N-[4-[5-(3,5-dichlorophenyl)-5-trifluoromethyl-4,5-dihydroisoxazole-3-yl]-2-methylbenzoyl]-N-(2-pyrimidinyl)carbamate] | – | – | – | ≥ 80% | ≥ 80%
10 | CC(=O)N(C(=O)c1ccc(C2=NOC(c3cc(Cl)cc(Cl)c3)(C(F)(F)F)C2)cc1C)n1cccn1 (stereo not drawn) [5-044, N-Acetyl-4-[5-(3,5-dichlorophenyl)-5-trifluoromethyl-4,5-dihydroisoxazole-3-yl]-2-methyl-N-(1-pyrazolyl)benzoic acid amide] | – | – | – | ≥ 80% | ≥ 80%
11 | COC(=O)N(C(=O)c1ccc(C2=NOC(c3cc(Cl)cc(Cl)c3)(C(F)(F)F)C2)cc1C)c1ccc(Cl)cn1 (stereo not drawn) [5-060, Methyl N-(5-chloro-2-pyridyl)-N-[4-[5-(3,5-dichlorophenyl)-5-trifluoromethyl-4,5-dihydro-isoxazole-3-yl]-2-methylbenzoyl]carbamate] | – | – | – | ≥ 80% | ≥ 80%
12 | COC(=O)N(C(=O)c1ccc(C2=NOC(c3cc(Cl)cc(Cl)c3)(C(F)(F)F)C2)cc1C)c1ccc(C#N)cn1 (stereo not drawn) [5-071, Methyl N-(5-cyano-2-pyridyl)-N-[4-[5-(3,5-dichlorophenyl)-5-trifluoromethyl-4,5-dihydro-isoxazole-3-yl]-2-methylbenzoyl]carbamate] | – | ≥ 80% | ≥ 80% | – | –
13 | CC(=O)N(C(=O)c1ccc(C2=NOC(c3cc(Cl)cc(Cl)c3)(C(F)(F)F)C2)cc1C)c1cccc(Cl)n1 (stereo not drawn) [5-073, N-Acetyl-N-(6-chloro-2-pyridyl)-4-[5-(3,5-dichlorophenyl)-5-trifluoromethyl-4,5-dihydroisoxazole-3-yl]-2-methyl benzoic acid amide] | – | ≥ 80% | ≥ 80% | – | –
14 | Cc1cc(C2=NOC(c3cc(Cl)cc(Cl)c3)(C(F)(F)F)C2)ccc1C(=O)N(C)c1cccc(Br)n1 (stereo not drawn) [5-075, N-(6-Bromo-2-pyridyl)-4-[5-(3,5-dichlorophenyl)-5-trifluoromethyl-4,5-dihydro-isoxazole-3-yl]-N-methyl-2-methyl benzoic acid amide] | – | ≥ 80% | ≥ 80% | – | –
15 | Cc1cc(C2=NOC(c3cc(Cl)cc(Cl)c3)(C(F)(F)F)C2)ccc1C(=O)N(C)c1cncnc1 (stereo not drawn) [5-164, 4-[5-(3,5-Dichlorophenyl)-5-trifluoromethyl-4,5-dihydroisoxazole-3-yl]-2-methyl-N-methyl-N-(5-pyrimidinyl)benzoic acid amide] | – | ≥ 80% | ≥ 80% | – | –
16 | COC(=O)N(C(=O)c1ccc(C2=NOC(c3cc(Cl)cc(Cl)c3)(C(F)(F)F)C2)cc1C)c1cncnc1 (stereo not drawn) [5-169, Methyl N-[4-[5-(3,5-dichlorophenyl)-5-trifluoromethyl-4,5-dihydro-isoxazole-3-yl]-2-methylbenzoyl]-N-(5-pyrimidinyl)carbamate] | – | ≥ 80% | ≥ 80% | – | –
17 | Cc1cc(C2=NOC(c3cc(Cl)cc(Cl)c3)(C(F)(F)F)C2)ccc1C(=O)N(C)c1ncc(C#N)cn1 (stereo not drawn) [5-171, N-(5-Cyano-2-pyrimidinyl)-4-[5-(3,5-dichlorophenyl)-5-trifluoromethyl-4,5-dihydroisoxazole-3-yl]-N-methyl-2-methyl benzoic acid amide] | – | ≥ 80% | ≥ 80% | – | –
18 | Cc1cc(C2=NOC(c3cc(Cl)cc(Cl)c3)(C(F)(F)F)C2)ccc1C(=O)N(C)C1(Cl)N=CC=CN1 (stereo not drawn) [5-172, N-(2-Chloro-2-pyrimidinyl)-4-[5-(3,5-dichlorophenyl)-5-trifluoromethyl-4,5-dihydro-isoxazole-3-yl]-N-methyl-2-methyl benzoic acid amide] | ≥ 80% | ≥ 80% | – | – | –
19 | CCc1cc(C2=NOC(c3cc(Cl)cc(Cl)c3)(C(F)(F)F)C2)ccc1C(=O)N/C=N\OC (stereo not drawn) [6-020, (Z)-4-[5-(3,5-Dichlorophenyl)-5-trifluoromethyl-4,5-dihydroisoxazole-3-yl]-2-ethyl-N-(methoxyiminomethyl)benzoic acid amide] | – | ≥ 80% | ≥ 80% | – | –
20 | CCO/N=C\NC(=O)c1ccc(C2=NOC(c3cc(Cl)cc(Cl)c3)(C(F)(F)F)C2)cc1OC(F)F (stereo not drawn) [6-023, (Z)-4-[5-(3,5-Dichlorophenyl)-5-trifluoromethyl-4,5-dihydroisoxazole-3-yl]-2-difluoromethoxy-N-(ethoxyiminomethyl)benzoic acid amide] | – | – | – | ≥ 80% | ≥ 80%
21 | COCc1cc(C2=NOC(c3cc(Cl)cc(Cl)c3)(C(F)(F)F)C2)ccc1C(=O)NC(=N)OC (stereo not drawn) [6-031, 4-[5-(3,5-Dichlorophenyl)-5-trifluoromethyl-4,5-dihydroisoxazole-3-yl]-N-(methoxy-iminomethyl)-2-methoxymethyl benzoic acid amide] | – | ≥ 80% | ≥ 80% | – | –
22 | CON=CNC(=O)c1ccc(C2=NOC(c3cc(Cl)cc(Cl)c3)(C(F)(F)F)C2)cc1CN(C)C (stereo not drawn) [6-032, 4-[5-(3,5-Dichlorophenyl)-5-trifluoromethyl-4,5-dihydroisoxazole-3-yl]-2-(dimethylaminomethyl)-N-(methoxyiminomethyl)benzoic acid amide] | ≥ 80% | – | – | – | –
23 | CON=CNC(=O)c1ccc(C2=NOC(c3cc(Cl)cc(Cl)c3)(C(F)(F)F)C2)cc1NC(C)=O (stereo not drawn) [6-033, 2-Acetylamino-4-[5-(3,5-dichlorophenyl)-5-trifluoromethyl-4,5-dihydroisoxazole-3-yl]-N-(methoxyiminomethyl)benzoic acid amide] | – | ≥ 80% | ≥ 80% | – | –
24 | CON=CNC(=O)c1ccc(C2=NOC(c3cc(Cl)cc(C(F)(F)F)c3)(C(F)(F)F)C2)cc1C (stereo not drawn) [6-037, 4-[5-(3-Chloro-5-trifluoromethylphenyl)-5-trifluoromethyl-4,5-dihydroisoxazole-3-yl]-N-(methoxyiminomethyl)-2-methyl benzoic acid amide] | – | ≥ 80% | ≥ 80% | – | –
25 | CON=CN(C)C(=O)c1ccc(C2=NOC(c3cc(Cl)cc(Cl)c3)(C(F)(F)F)C2)cc1C (stereo not drawn) [7-002, 4-[5-(3,5-Dichlorophenyl)-5-trifluoromethyl-4,5-dihydroisoxazole-3-yl]-N-(methoxyiminomethyl)-N-methyl-2-methylbenzoic acid amide] | – | ≥ 80% | ≥ 80% | – | –
